The record followed here is patent US9533985B2, “Sulfonamide derivative and medicinal use thereof” (EA Pharma Co., Ltd., priority 2012, dated 2017).

The target in the experiment is α4β7 integrin (Homo sapiens (Human), UniProt P13612+P26010). Briefly: MAdCAM-1/α4β7 integrin binding inhibitory activity evaluation test in the presence of serum (2). In kind it is cell-based. Particulars: RPMI-8866 cells binding to mouse MAdCAM-1/Fc, same manner as Test (3), read-out: α4β7 Rank of activity with serum added. The procedure: The ability of test substances to inhibit the binding of a human B cell line, RPMI-8866, which is known to express α4β7 integrin, to MAdCAM-1 was measured.
To 96-well microtiter plates, recombinant mouse MAdCAM-1/Fc (R&D systems) solution (1 μg/mL) diluted with buffer A (carbonate buffer, pH 9.6) was added at 50 μL/well, followed by incubation at 4° C. overnight. After washing once with PBS, Block Ace (Snow Brand Milk Products Company, Limited) was added at 150 μL/well, followed by incubation at room temperature for 2 hours. After removal, washing was conducted once with PBS.
100 μL of each test substance diluted with a binding buffer (DMEM containing 40 mM HEPES, 0.2% BSA, and 4 mM MnCl2) to various concentrations and 100 μL of RPMI-8866 cells (2×10^6 cell/mL) were added to plates coated with MAdCAM-1/Fc (5×10^5 cells/well) with human serum being contained at a final concentration of 50%, followed by incubation at 30° C. for 15 minutes to 60 minutes. After the cells were bound to each well, unbound cells were removed by washing with PBS. To the plates, buffer C (PBS containing 1.5% Triton X-100) was added at 50 μL/well to lyse the bound RPMI-8866 cells. To 30 μL of the cell lysate, 30 μL of Substrate Buffer (Promega, CytoTox 96 Non-Radioactive Cytotoxicity Assay) was added, and the reaction was allowed to proceed at room temperature in a dark place for 30 minutes. To each well, 30 μL of Stop Solution (Promega, CytoTox 96 Non-Radioactive Cytotoxicity Assay) was added, and the absorbance at 490 nm was measured by using a plate reader. Here, by the obtained absorbance, the activity of the lactate dehydrogenase (LDH) dissolved into the supernatant of each well was detected. In other words, the absorbance was proportional to the number of the RPMI-8866 cells bound to MAdCAM-1 and remaining on the plate. The test was duplicated. The binding ratios of the cells at various concentrations were determined, with the absorbance of a well containing no test substance taken as 100%. Then, the concentration IC50, at which 50% binding inhibition was achieved, was calculated.
The MAdCAM-1/α4β7 integrin binding inhibitory activity in the presence of serum was measured in the same manner as in Test (3) described above. […] The VCAM-1/α4β1 integrin binding inhibitory activity evaluation test and the MAdCAM-1/α4β7 integrin binding inhibitory activity evaluation test were carried out according to the methods described in Tests (1) and (2) described above.

Sequence of α4β7 integrin (P13612 34-1032): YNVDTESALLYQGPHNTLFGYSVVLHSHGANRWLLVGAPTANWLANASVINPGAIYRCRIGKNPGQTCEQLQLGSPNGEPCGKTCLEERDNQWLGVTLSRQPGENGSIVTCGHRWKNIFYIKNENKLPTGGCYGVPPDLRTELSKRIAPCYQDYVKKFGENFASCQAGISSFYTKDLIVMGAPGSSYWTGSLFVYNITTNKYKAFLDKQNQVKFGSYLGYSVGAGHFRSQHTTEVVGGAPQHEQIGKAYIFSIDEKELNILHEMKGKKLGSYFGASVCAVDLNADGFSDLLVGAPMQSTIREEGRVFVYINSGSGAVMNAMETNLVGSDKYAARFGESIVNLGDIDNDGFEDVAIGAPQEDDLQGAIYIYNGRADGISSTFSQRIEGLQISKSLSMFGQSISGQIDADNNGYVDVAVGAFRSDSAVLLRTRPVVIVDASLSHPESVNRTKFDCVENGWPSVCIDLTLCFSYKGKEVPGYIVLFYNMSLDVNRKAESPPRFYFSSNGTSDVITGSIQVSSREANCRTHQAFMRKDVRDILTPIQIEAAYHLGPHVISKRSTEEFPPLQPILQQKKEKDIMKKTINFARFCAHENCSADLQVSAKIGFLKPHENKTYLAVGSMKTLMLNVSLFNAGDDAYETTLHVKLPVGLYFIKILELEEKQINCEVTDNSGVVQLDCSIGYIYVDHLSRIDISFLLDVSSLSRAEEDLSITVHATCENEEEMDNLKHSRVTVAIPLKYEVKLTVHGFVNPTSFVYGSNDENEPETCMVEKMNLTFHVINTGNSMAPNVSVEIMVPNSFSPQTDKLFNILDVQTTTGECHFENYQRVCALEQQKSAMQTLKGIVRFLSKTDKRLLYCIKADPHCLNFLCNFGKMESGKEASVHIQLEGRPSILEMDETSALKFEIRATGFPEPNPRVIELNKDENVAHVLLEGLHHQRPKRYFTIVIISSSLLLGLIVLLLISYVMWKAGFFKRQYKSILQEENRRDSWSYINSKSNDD
Sequence of α4β7 integrin (P26010 20-798): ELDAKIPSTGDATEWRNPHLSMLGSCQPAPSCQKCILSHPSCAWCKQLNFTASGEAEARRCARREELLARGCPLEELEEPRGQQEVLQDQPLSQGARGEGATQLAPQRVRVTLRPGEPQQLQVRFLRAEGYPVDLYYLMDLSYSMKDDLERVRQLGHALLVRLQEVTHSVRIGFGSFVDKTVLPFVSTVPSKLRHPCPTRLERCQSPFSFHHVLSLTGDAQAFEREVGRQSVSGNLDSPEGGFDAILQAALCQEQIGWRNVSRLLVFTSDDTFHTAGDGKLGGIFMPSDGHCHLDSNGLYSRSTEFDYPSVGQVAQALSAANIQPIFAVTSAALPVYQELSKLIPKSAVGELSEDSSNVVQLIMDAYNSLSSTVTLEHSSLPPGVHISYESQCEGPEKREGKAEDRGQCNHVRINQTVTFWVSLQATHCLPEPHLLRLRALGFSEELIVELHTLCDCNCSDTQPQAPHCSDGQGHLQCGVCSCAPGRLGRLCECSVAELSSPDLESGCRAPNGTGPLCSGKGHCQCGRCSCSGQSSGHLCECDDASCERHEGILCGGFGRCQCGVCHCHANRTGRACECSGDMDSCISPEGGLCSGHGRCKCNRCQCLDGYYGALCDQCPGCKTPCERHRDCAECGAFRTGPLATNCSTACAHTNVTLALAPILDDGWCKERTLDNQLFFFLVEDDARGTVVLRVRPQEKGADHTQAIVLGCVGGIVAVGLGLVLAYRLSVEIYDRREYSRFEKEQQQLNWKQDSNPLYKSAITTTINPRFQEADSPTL

Regarding `Cc1cn(C)c(=O)n(-c2ccc(C[C@H](NC(=O)c3ccc(NS(=O)(=O)c4ccc(C(=O)NC(C)(C)C)nc4)cc3F)C(=O)O)cc2)c1=O` [Example 175, N-{4-[({6-[(tert-Butylamino)carbonyl]pyridin-3-yl}sulfonyl)amino]-2-fluorobenzoyl}-4-(3,5-dimethyl-2,6-dioxo-3,6-dihydropyrimidin-1(2H)-yl)-L-phenylalanine], the IC50 lay within 10 to 50 nM.

Consider `CNCc1ccc(S(=O)(=O)Nc2cc(F)c(C(=O)N[C@@H](Cc3ccc(-n4c(=O)ccn(C)c4=O)cc3)C(=O)O)c(F)c2)cc1` [Example 176, N-{2,6-Difluoro-4-[({4-[(methylamino)methyl]phenyl}sulfonyl)amino]benzoyl}-4-(3-methyl-2,6-dioxo-3,6-dihydropyrimidin-1(2H)-yl)-L-phenylalanine], for which the IC50 was at most 10 nM.

Consider `CNCc1ccc(S(=O)(=O)Nc2ccc(C(=O)N[C@@H](Cc3ccc(-n4c(=O)c5ccncc5n(C)c4=O)cn3)C(=O)O)c(F)c2)cc1` [Example 177, N-{2-Fluoro-4-[({4-[(methylamino)methyl]phenyl}sulfonyl)amino]benzoyl}-3-[5-(1-methyl-2,4-dioxo-1,4-dihydropyrido[3,4-d]pyrimidin-3(2H)-yl)pyridin-2-yl]-L-alanine], for which the IC50 lay in the range of 10 to 50 nM.

On to `Cn1c(=O)n(-c2ccc(C[C@H](NC(=O)c3c(F)cc(NS(=O)(=O)c4ccc(-c5ccsc5)cc4)cc3F)C(=O)O)nc2)c(=O)c2ccncc21` [Example 178, N-[2,6-Difluoro-4-({[4-(3-thienyl)phenyl]sulfonyl}amino)benzoyl]-3-[5-(1-methyl-2,4-dioxo-1,4-dihydropyrido[3,4-d]pyrimidin-3(2H)-yl)pyridin-2-yl]-L-alanine], for which the IC50 was 10 to 50 nM.

For `Cn1c(=O)n(-c2ccc(C[C@H](NC(=O)c3ccc(NS(=O)(=O)c4cc[n+]([O-])cc4)cc3F)C(=O)O)cc2)c(=O)c2cc[n+]([O-])cc21` [Example 179, (2S)-2-[[2-Fluoro-4-[(1-oxidopyridin-1-ium-4-yl)sulfonylamino]benzoyl]amino]-3-[4-(1-methyl-7-oxido-2,4-dioxo-pyrido[3,4-d]pyrimidin-7-ium-3-yl)phenyl]propanoic Acid], the IC50 is at most 10 nM.

As for `Cc1cc(CNC(C)(C)C)ccc1S(=O)(=O)Nc1ccc(C(=O)N[C@@H](Cc2ccc(-n3c(=O)c4ccncc4n(C)c3=O)cc2)C(=O)O)c(F)c1` [Example 180, N-{4-[({4-[(tert-Butylamino)methyl]-2-methylphenyl}sulfonyl)amino]-2-fluorobenzoyl}-4-(1-methyl-2,4-dioxo-1,4-dihydropyrido[3,4-d]pyrimidin-3(2H)-yl)-L-phenylalanine], the IC50 was at most 10 nM.

With `Cc1cc(CNC2CCCC2)ccc1S(=O)(=O)Nc1ccc(C(=O)N[C@@H](Cc2ccc(-n3c(=O)c4ccncc4n(C)c3=O)cc2)C(=O)O)c(F)c1` [Example 181, N-{4-[({4-[(Cyclopentylamino)methyl]-2-methylphenyl}sulfonyl)amino]-2-fluorobenzoyl}-4-(1-methyl-2,4-dioxo-1,4-dihydropyrido[3,4-d]pyrimidin-3(2H)-yl)-L-phenylalanine], the IC50 was in the range of 10 to 50 nM.

Take `Cn1c(=O)n(-c2ccc(C[C@H](NC(=O)c3ccc(NS(=O)(=O)c4ccc[nH]4)cc3F)C(=O)O)nc2)c(=O)c2ccncc21` [Example 182, N-{2-Fluoro-4-[(1H-pyrrol-2-yl-sulfonyl)amino]benzoyl}-3-[5-(1-methyl-2,4-dioxo-1,4-dihydropyrido[3,4-d]pyrimidin-3(2H)-yl)pyridin-2-yl]-L-alanine]: the IC50 fell in the range of 10 to 50 nM.

As for `Cn1c(=O)n(-c2ccc(C[C@H](NC(=O)c3ncc(NS(=O)(=O)c4ccco4)cc3F)C(=O)O)cc2)c(=O)c2ccncc21` [Example 183, N-({3-Fluoro-5-[(2-furylsulfonyl)amino]pyridin-2-yl}carbonyl)-4-(1-methyl-2,4-dioxo-1,4-dihydropyrido[3,4-d]pyrimidin-3(2H)-yl)-L-phenylalanine], the IC50 lay in the range of 10 to 50 nM.

Consider `Cn1c(=O)n(-c2ccc(C[C@H](NC(=O)c3ncc(NS(=O)(=O)c4ccncc4)cc3F)C(=O)O)cc2)c(=O)c2ccncc21` [Example 184, N-({3-Fluoro-5-[(pyridin-4-yl-sulfonyl)amino]pyridin-2-yl}carbonyl)-4-(1-methyl-2,4-dioxo-1,4-dihydropyrido[3,4-d]pyrimidin-3(2H)-yl)-L-phenylalanine], for which the IC50 lay within 10 to 50 nM.

For `Cn1c(=O)n(-c2ccc(C[C@H](NC(=O)c3c(F)cc(NS(=O)(=O)c4ccccc4O)cc3F)C(=O)O)nc2)c(=O)c2ccncc21` [Example 185, N-(2,6-Difluoro-4-{[(2-hydroxyphenyl)sulfonyl]amino}benzoyl)-3-[5-(1-methyl-2,4-dioxo-1,4-dihydropyrido[3,4-d]pyrimidin-3(2H)-yl)pyridin-2-yl]-L-alanine], the IC50 lay within 10 to 50 nM.

On to `Cn1c(=O)n(-c2ccc(C[C@H](NC(=O)c3cc(F)c(NS(=O)(=O)c4cccs4)cc3F)C(=O)O)cc2)c(=O)c2ccncc21` [Example 213, N-{2,5-Difluoro-4-[(2-thienylsulfonyl)amino]benzoyl}-4-(1-methyl-2,4-dioxo-1,4-dihydropyrido[3,4-d]pyrimidin-3(2H)-yl)-L-phenylalanine], for which the IC50 lay within 10 to 50 nM.

Take `CCOc1ccccc1S(=O)(=O)Nc1cc(F)c(C(=O)N[C@@H](Cc2ccc(-n3c(=O)c4ccncc4n(C)c3=O)cc2)C(=O)O)c(F)c1` [Example 214, N-(4-{[(2-Ethoxyphenyl)sulfonyl]amino}-2,6-difluorobenzoyl)-4-(1-methyl-2,4-dioxo-1,4-dihydropyrido[3,4-d]pyrimidin-3(2H)-yl)-L-phenylalanine]: the IC50 lay within 10 to 50 nM.

`Cn1c(=O)n(-c2ccc(C[C@H](NC(=O)c3cc(F)c(NS(=O)(=O)c4ccc(-c5cncnc5)cc4)cc3F)C(=O)O)nc2)c(=O)c2ccncc21` [Example 215, N-(2,5-Difluoro-4-{[(4-pyrimidin-5-ylphenyl)sulfonyl]amino}benzoyl)-3-[5-(1-methyl-2,4-dioxo-1,4-dihydropyrido[3,4-d]pyrimidin-3(2H)-yl)pyridin-2-yl]-L-alanine]: the IC50 lay within 10 to 50 nM.

On to `Cn1ccc(=O)n(-c2ccc(C[C@H](NC(=O)c3cc(F)c(NS(=O)(=O)c4ccc(-c5cncnc5)cc4)cc3F)C(=O)O)cc2)c1=O` [Example 216, N-(2,5-Difluoro-4-{[(4-pyrimidin-5-ylphenyl)sulfonyl]amino}benzoyl)-4-(3-methyl-2,6-dioxo-3,6-dihydropyrimidin-1(2H)-yl)-L-phenylalanine], for which the IC50 lay within 10 to 50 nM.

`Cn1c(=O)n(-c2ccc(C[C@H](NC(=O)c3cc(F)c(NS(=O)(=O)c4ccc(-n5cncn5)cn4)cc3F)C(=O)O)nc2)c(=O)c2ccncc21` [Example 217, N-[2,5-Difluoro-4-({[5-(1H-1,2,4-triazol-1-yl)pyridin-2-yl]sulfonyl}amino)benzoyl]-3-[5-(1-methyl-2,4-dioxo-1,4-dihydropyrido[3,4-d]pyrimidin-3(2H)-yl)pyridin-2-yl]-L-alanine]: the IC50 is 10 to 50 nM.

As to `Cn1c(=O)n(-c2ccc(C[C@H](NC(=O)c3cc(F)c(NS(=O)(=O)c4ccc(-n5cnnn5)cc4)cc3F)C(=O)O)nc2)c(=O)c2ccncc21` [Example 218, N-[2,5-Difluoro-4-({[4-(1H-tetrazol-1-yl)phenyl]sulfonyl}amino)benzoyl]-3-[5-(1-methyl-2,4-dioxo-1,4-dihydropyrido[3,4-d]pyrimidin-3(2H)-yl)pyridin-2-yl]-L-alanine], the IC50 fell in the range of 10 to 50 nM.

With `Cn1c(=O)n(-c2ccc(C[C@H](NC(=O)c3cc(F)c(NS(=O)(=O)c4ccc(-n5cnnc5)cc4)cc3F)C(=O)O)nc2)c(=O)c2ccncc21` [Example 219, N-[2,5-Difluoro-4-({[4-(4H-1,2,4-triazol-4-yl)phenyl]sulfonyl}amino)benzoyl]-3-[5-(1-methyl-2,4-dioxo-1,4-dihydropyrido[3,4-d]pyrimidin-3(2H)-yl)pyridin-2-yl]-L-alanine], the IC50 fell in the range of 10 to 50 nM.

`Cn1c(=O)n(-c2ccc(C[C@H](NC(=O)c3cc(F)c(NS(=O)(=O)c4ccc(-c5cncnc5)cn4)cc3F)C(=O)O)nc2)c(=O)c2ccncc21` [Example 220, N-(2,5-Difluoro-4-{[(5-pyrimidin-5-ylpyridin-2-yl)sulfonyl]amino}benzoyl)-3-[5-(1-methyl-2,4-dioxo-1,4-dihydropyrido[3,4-d]pyrimidin-3(2H)-yl)pyridin-2-yl]-L-alanine]: the IC50 is 10 to 50 nM.
